Measurements: the supplement of paper PMC10307832

Experiments:
Assay in all cases: relative viability (nuclei count vs DMSO), 5 days (fraction); higher = more cells survive
Gemcitabine = compound: Nc1ccn([C@@H]2O[C@H](CO)[C@@H](O)C2(F)F)c(=O)n1 [Gemcitabine]
Summary of the method: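 Lung cancer cell lines were seeded into 1536-well plates, kept overnight at 37 °C and pinned with five library-drug doses (not always all listed) spaced by √10. After 5 days, nuclei were Hoechst-stained, imaged at 4× and counted with MetaXpress. Viability is treated-well nuclei over vehicle-well nuclei, taken as a median across plates. Plates needed control CV below 25% and at least one doubling.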

Gemcitabine + Luminespib = compound: Nc1ccn([C@@H]2O[C@H](CO)[C@@H](O)C2(F)F)c(=O)n1 [Gemcitabine] + CCNC(=O)c1noc(-c2cc(C(C)C)c(O)cc2O)c1-c1ccc(CN2CCOCC2)cc1 [Luminespib] (partner 0.01 µM)
Summary of the method: (§1)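 Lung cancer cell lines in 1536-well plates were dosed by pin tool the day after seeding, either with one drug alone or with a fixed anchor-drug dose plus five library-drug doses (not always all listed) in √10 steps. After 5 days, cells were fixed and their nuclei stained in one step (final 0.05% Triton X-100, 1% formaldehyde, 1 ug/ml Hoechst), then counted on 4× images. Relative viability is the nuclei count in treated wells divided by that in vehicle wells. Values are medians of duplicate plates.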

Gemcitabine + Foretinib = compound: Nc1ccn([C@@H]2O[C@H](CO)[C@@H](O)C2(F)F)c(=O)n1 [Gemcitabine] + COc1cc2c(Oc3ccc(NC(=O)C4(C(=O)Nc5ccc(F)cc5)CC4)cc3F)ccnc2cc1OCCCN1CCOCC1 [Foretinib] (partner 0.25 µM)
Summary of the method: as §1

Gemcitabine + OSI-027 = compound: Nc1ccn([C@@H]2O[C@H](CO)[C@@H](O)C2(F)F)c(=O)n1 [Gemcitabine] + COc1cccc2cc(-c3nc([C@H]4CC[C@H](C(=O)O)CC4)n4ncnc(N)c34)[nH]c12 [OSI-027] (partner 0.5 µM)
Summary of the method: as §1

Gemcitabine + Tozasertib = compound: Nc1ccn([C@@H]2O[C@H](CO)[C@@H](O)C2(F)F)c(=O)n1 [Gemcitabine] + Cc1cc(Nc2cc(N3CCN(C)CC3)nc(Sc3ccc(NC(=O)C4CC4)cc3)n2)n[nH]1 [Tozasertib] (partner 0.1 µM)
Summary of the method: as §1

Gemcitabine + Dasatinib = compound: Nc1ccn([C@@H]2O[C@H](CO)[C@@H](O)C2(F)F)c(=O)n1 [Gemcitabine] + Cc1nc(Nc2ncc(C(=O)Nc3c(C)cccc3Cl)s2)cc(N2CCN(CCO)CC2)n1 [Dasatinib] (partner 0.075 µM)
Summary of the method: as §1

Gemcitabine + Phenformin = compound: Nc1ccn([C@@H]2O[C@H](CO)[C@@H](O)C2(F)F)c(=O)n1 [Gemcitabine] + N=C(N)NC(=N)NCCc1ccccc1 [Phenformin] (partner 250 µM)
Summary of the method: as §1

Gemcitabine + Trametinib = compound: Nc1ccn([C@@H]2O[C@H](CO)[C@@H](O)C2(F)F)c(=O)n1 [Gemcitabine] + CC(=O)Nc1cccc(-n2c(=O)n(C3CC3)c(=O)c3c(Nc4ccc(I)cc4F)n(C)c(=O)c(C)c32)c1 [Trametinib] (partner 0.02 µM)
Summary of the method: as §1

[1] = compound: Nc1ccn([C@@H]2O[C@H](CO)[C@@H](O)C2(F)F)c(=O)n1 [Gemcitabine] + CC(=O)c1c(C)c2cnc(Nc3ccc(N4CCNCC4)cn3)nc2n(C2CCCC2)c1=O [Palbociclib] (partner 0.5 µM)
Summary of the method: as §1

Gemcitabine + AZD7762 = compound: Nc1ccn([C@@H]2O[C@H](CO)[C@@H](O)C2(F)F)c(=O)n1 [Gemcitabine] + NC(=O)Nc1cc(-c2cccc(F)c2)sc1C(=O)N[C@H]1CCCNC1 [AZD7762] (partner 0.2 µM)
Summary of the method: as §1

Gemcitabine + Pemetrexed = compound: Nc1ccn([C@@H]2O[C@H](CO)[C@@H](O)C2(F)F)c(=O)n1 [Gemcitabine] + Nc1nc2[nH]cc(CCc3ccc(C(=O)N[C@@H](CCC(=O)O)C(=O)O)cc3)c2c(=O)[nH]1 [Pemetrexed] (partner 0.2 µM)
Summary of the method: as §1

Gemcitabine + Decitabine = compound: Nc1ccn([C@@H]2O[C@H](CO)[C@@H](O)C2(F)F)c(=O)n1 [Gemcitabine] + Nc1ncn([C@H]2C[C@H](O)[C@@H](CO)O2)c(=O)n1 [Decitabine] (partner 2 µM)
Summary of the method: as §1

Gemcitabine + Vorinostat = compound: Nc1ccn([C@@H]2O[C@H](CO)[C@@H](O)C2(F)F)c(=O)n1 [Gemcitabine] + O=C(CCCCCCC(=O)Nc1ccccc1)NO [Vorinostat] (partner 1 µM)
Summary of the method: as §1

Gemcitabine + Olaparib = compound: Nc1ccn([C@@H]2O[C@H](CO)[C@@H](O)C2(F)F)c(=O)n1 [Gemcitabine] + O=C(c1cc(Cc2n[nH]c(=O)c3ccccc23)ccc1F)N1CCN(C(=O)C2CC2)CC1 [Olaparib] (partner 8 µM)
Summary of the method: as §1

NCI-H1623
relative viability (Gemcitabine; 0.001 µM): 0.743
relative viability (Gemcitabine; 0.003162 µM): 0.255
relative viability (Gemcitabine; 0.01 µM): 0.218
relative viability (Gemcitabine; 0.03162 µM): 0.188
relative viability (Gemcitabine; 0.1 µM): 0.178
relative viability (Gemcitabine + Luminespib; first compound 0.001 µM): 0.43
relative viability (Gemcitabine + Luminespib; first compound 0.003162 µM): 0.308
relative viability (Gemcitabine + Luminespib; first compound 0.01 µM): 0.279
relative viability (Gemcitabine + Luminespib; first compound 0.03162 µM): 0.236
relative viability (Gemcitabine + Luminespib; first compound 0.1 µM): 0.234
relative viability (Gemcitabine + Foretinib; first compound 0.001 µM): 0.741
relative viability (Gemcitabine + Foretinib; first compound 0.003162 µM): 0.518
relative viability (Gemcitabine + Foretinib; first compound 0.01 µM): 0.268
relative viability (Gemcitabine + Foretinib; first compound 0.03162 µM): 0.229
relative viability (Gemcitabine + Foretinib; first compound 0.1 µM): 0.194
relative viability (Gemcitabine + OSI-027; first compound 0.001 µM): 0.349
relative viability (Gemcitabine + OSI-027; first compound 0.003162 µM): 0.29
relative viability (Gemcitabine + OSI-027; first compound 0.01 µM): 0.254
relative viability (Gemcitabine + OSI-027; first compound 0.03162 µM): 0.245
relative viability (Gemcitabine + OSI-027; first compound 0.1 µM): 0.237
relative viability (Gemcitabine + Tozasertib; first compound 0.001 µM): 0.333
relative viability (Gemcitabine + Tozasertib; first compound 0.003162 µM): 0.222
relative viability (Gemcitabine + Tozasertib; first compound 0.01 µM): 0.173
relative viability (Gemcitabine + Tozasertib; first compound 0.03162 µM): 0.16
relative viability (Gemcitabine + Tozasertib; first compound 0.1 µM): 0.17
relative viability (Gemcitabine + Dasatinib; first compound 0.001 µM): 0.485
relative viability (Gemcitabine + Dasatinib; first compound 0.003162 µM): 0.431
relative viability (Gemcitabine + Dasatinib; first compound 0.01 µM): 0.175
relative viability (Gemcitabine + Dasatinib; first compound 0.03162 µM): 0.139
relative viability (Gemcitabine + Dasatinib; first compound 0.1 µM): 0.143
relative viability (Gemcitabine + Phenformin; first compound 0.001 µM): 0.526
relative viability (Gemcitabine + Phenformin; first compound 0.003162 µM): 0.49
relative viability (Gemcitabine + Phenformin; first compound 0.01 µM): 0.201
relative viability (Gemcitabine + Phenformin; first compound 0.03162 µM): 0.369
relative viability (Gemcitabine + Phenformin; first compound 0.1 µM): 0.164

NCI-H2342
relative viability (Gemcitabine; 0.001 µM): 0.922
relative viability (Gemcitabine; 0.003162 µM): 0.972
relative viability (Gemcitabine; 0.01 µM): 0.777
relative viability (Gemcitabine; 0.03162 µM): 0.438
relative viability (Gemcitabine; 0.1 µM): 0.305
relative viability (Gemcitabine + Trametinib; first compound 0.001 µM): 0.862
relative viability (Gemcitabine + Trametinib; first compound 0.003162 µM): 0.904
relative viability (Gemcitabine + Trametinib; first compound 0.01 µM): 0.561
relative viability (Gemcitabine + Trametinib; first compound 0.03162 µM): 0.545
relative viability (Gemcitabine + Trametinib; first compound 0.1 µM): 0.311
relative viability ([1]; first compound 0.001 µM): 0.484
relative viability ([1]; first compound 0.003162 µM): 0.527
relative viability ([1]; first compound 0.01 µM): 0.46
relative viability ([1]; first compound 0.03162 µM): 0.433
relative viability ([1]; first compound 0.1 µM): 0.393
relative viability (Gemcitabine + Luminespib; first compound 0.001 µM): 0.591
relative viability (Gemcitabine + Luminespib; first compound 0.003162 µM): 0.61
relative viability (Gemcitabine + Luminespib; first compound 0.01 µM): 0.543
relative viability (Gemcitabine + Luminespib; first compound 0.03162 µM): 0.376
relative viability (Gemcitabine + Luminespib; first compound 0.1 µM): 0.331
relative viability (Gemcitabine + Foretinib; first compound 0.001 µM): 1.08
relative viability (Gemcitabine + Foretinib; first compound 0.003162 µM): 1
relative viability (Gemcitabine + Foretinib; first compound 0.01 µM): 0.712
relative viability (Gemcitabine + Foretinib; first compound 0.03162 µM): 0.389
relative viability (Gemcitabine + Foretinib; first compound 0.1 µM): 0.258
relative viability (Gemcitabine + OSI-027; first compound 0.001 µM): 0.652
relative viability (Gemcitabine + OSI-027; first compound 0.003162 µM): 0.629
relative viability (Gemcitabine + OSI-027; first compound 0.01 µM): 0.563
relative viability (Gemcitabine + OSI-027; first compound 0.03162 µM): 0.392
relative viability (Gemcitabine + OSI-027; first compound 0.1 µM): 0.381
relative viability (Gemcitabine + Tozasertib; first compound 0.001 µM): 0.456
relative viability (Gemcitabine + Tozasertib; first compound 0.003162 µM): 0.451
relative viability (Gemcitabine + Tozasertib; first compound 0.01 µM): 0.427
relative viability (Gemcitabine + Tozasertib; first compound 0.03162 µM): 0.279
relative viability (Gemcitabine + Tozasertib; first compound 0.1 µM): 0.268
relative viability (Gemcitabine + Dasatinib; first compound 0.001 µM): 0.312
relative viability (Gemcitabine + Dasatinib; first compound 0.003162 µM): 0.277
relative viability (Gemcitabine + Dasatinib; first compound 0.01 µM): 0.282
relative viability (Gemcitabine + Dasatinib; first compound 0.03162 µM): 0.233
relative viability (Gemcitabine + Dasatinib; first compound 0.1 µM): 0.293
relative viability (Gemcitabine + Phenformin; first compound 0.001 µM): 0.477
relative viability (Gemcitabine + Phenformin; first compound 0.003162 µM): 0.426
relative viability (Gemcitabine + Phenformin; first compound 0.01 µM): 0.539
relative viability (Gemcitabine + Phenformin; first compound 0.03162 µM): 0.281
relative viability (Gemcitabine + Phenformin; first compound 0.1 µM): 0.315
relative viability (Gemcitabine + AZD7762; first compound 0.001 µM): 0.473
relative viability (Gemcitabine + AZD7762; first compound 0.003162 µM): 0.382
relative viability (Gemcitabine + AZD7762; first compound 0.01 µM): 0.333
relative viability (Gemcitabine + AZD7762; first compound 0.03162 µM): 0.235
relative viability (Gemcitabine + AZD7762; first compound 0.1 µM): 0.374
relative viability (Gemcitabine + Pemetrexed; first compound 0.001 µM): 0.821
relative viability (Gemcitabine + Pemetrexed; first compound 0.003162 µM): 0.698
relative viability (Gemcitabine + Pemetrexed; first compound 0.01 µM): 0.748
relative viability (Gemcitabine + Pemetrexed; first compound 0.03162 µM): 0.412
relative viability (Gemcitabine + Pemetrexed; first compound 0.1 µM): 0.337
relative viability (Gemcitabine + Decitabine; first compound 0.001 µM): 0.694
relative viability (Gemcitabine + Decitabine; first compound 0.003162 µM): 0.65
relative viability (Gemcitabine + Decitabine; first compound 0.01 µM): 0.532
relative viability (Gemcitabine + Decitabine; first compound 0.03162 µM): 0.537
relative viability (Gemcitabine + Decitabine; first compound 0.1 µM): 0.337
relative viability (Gemcitabine + Vorinostat; first compound 0.001 µM): 0.732
relative viability (Gemcitabine + Vorinostat; first compound 0.003162 µM): 0.56
relative viability (Gemcitabine + Vorinostat; first compound 0.01 µM): 0.452
relative viability (Gemcitabine + Vorinostat; first compound 0.03162 µM): 0.346
relative viability (Gemcitabine + Vorinostat; first compound 0.1 µM): 0.289
relative viability (Gemcitabine + Olaparib; first compound 0.001 µM): 0.457
relative viability (Gemcitabine + Olaparib; first compound 0.003162 µM): 0.401
relative viability (Gemcitabine + Olaparib; first compound 0.01 µM): 0.277
relative viability (Gemcitabine + Olaparib; first compound 0.03162 µM): 0.244
relative viability (Gemcitabine + Olaparib; first compound 0.1 µM): 0.259
